In US20130065883A1 (Centro Nacional de Investigaceiones Oncologicas (CNIO), priority 2010, published 2013):

Experiments:
PIM-1 = target: T1, PIM-1 (Homo sapiens, UniProt P11309); assay: PIM-1 biochemical assay (ADP Hunter); settings: semi-quantitative class; read-out: PIM1 IC50;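 also: recombinant human PIM-1 carrying a C-terminal His tag, kinase activity quantified via ADP formed as the direct enzymatic product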
T1 construct: histidine tag (C); made in house

PIM-2 = target: T2, PIM-2 (Homo sapiens, UniProt Q9P1W9); assay: PIM-2 biochemical assay (ADP Hunter); settings: semi-quantitative class; read-out: PIM2 IC50;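 also: recombinant N-terminally His-tagged human enzyme, kinase activity quantified by detection of ADP formed as the direct reaction product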
T2 construct: histidine tag (N); made in house

FLT3 = target: T3, FLT3 (Homo sapiens, UniProt P36888); assay: FLT3 biochemical assay (ADP Hunter); settings: semi-quantitative class;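 also: FLT3 enzymatic activity quantified through the ADP produced by the kinase reaction, detected with an ADP Hunter readout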
T3 sequence (P36888 27-993): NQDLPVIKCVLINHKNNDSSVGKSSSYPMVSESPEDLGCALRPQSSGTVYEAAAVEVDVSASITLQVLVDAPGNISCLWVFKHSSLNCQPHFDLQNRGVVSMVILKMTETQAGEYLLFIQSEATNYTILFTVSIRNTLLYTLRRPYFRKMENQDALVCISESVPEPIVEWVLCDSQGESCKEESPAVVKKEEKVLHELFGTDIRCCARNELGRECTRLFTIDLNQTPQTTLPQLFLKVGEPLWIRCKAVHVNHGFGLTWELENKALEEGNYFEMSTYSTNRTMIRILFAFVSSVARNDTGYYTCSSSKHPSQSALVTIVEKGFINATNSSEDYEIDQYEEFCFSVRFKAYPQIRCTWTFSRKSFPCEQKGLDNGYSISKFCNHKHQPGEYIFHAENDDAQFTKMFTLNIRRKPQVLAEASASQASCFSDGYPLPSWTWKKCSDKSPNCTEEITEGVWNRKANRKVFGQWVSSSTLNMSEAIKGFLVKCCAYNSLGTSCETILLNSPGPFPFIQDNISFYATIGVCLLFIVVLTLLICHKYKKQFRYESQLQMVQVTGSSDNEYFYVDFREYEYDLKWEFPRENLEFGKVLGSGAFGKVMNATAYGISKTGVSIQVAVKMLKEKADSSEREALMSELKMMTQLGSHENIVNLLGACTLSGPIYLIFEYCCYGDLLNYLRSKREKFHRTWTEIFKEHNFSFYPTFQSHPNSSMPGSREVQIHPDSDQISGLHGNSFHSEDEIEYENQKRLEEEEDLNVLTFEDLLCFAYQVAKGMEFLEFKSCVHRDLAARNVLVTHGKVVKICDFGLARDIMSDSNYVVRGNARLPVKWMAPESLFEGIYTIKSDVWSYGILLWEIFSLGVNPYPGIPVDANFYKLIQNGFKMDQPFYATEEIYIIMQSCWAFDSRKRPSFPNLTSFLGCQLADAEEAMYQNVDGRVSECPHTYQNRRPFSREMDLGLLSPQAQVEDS

PIM-3 = target: T4, PIM-3 (Homo sapiens, UniProt Q86V86); assay: PIM-3 biochemical assay (ADP Hunter); settings: semi-quantitative class; read-out: PIM3 IC50;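 also: kinase activity read out as the quantity of ADP generated by the enzyme reaction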
T4 construct: purchased Millipore 14-738

T2 sequence (Q9P1W9 whole entry): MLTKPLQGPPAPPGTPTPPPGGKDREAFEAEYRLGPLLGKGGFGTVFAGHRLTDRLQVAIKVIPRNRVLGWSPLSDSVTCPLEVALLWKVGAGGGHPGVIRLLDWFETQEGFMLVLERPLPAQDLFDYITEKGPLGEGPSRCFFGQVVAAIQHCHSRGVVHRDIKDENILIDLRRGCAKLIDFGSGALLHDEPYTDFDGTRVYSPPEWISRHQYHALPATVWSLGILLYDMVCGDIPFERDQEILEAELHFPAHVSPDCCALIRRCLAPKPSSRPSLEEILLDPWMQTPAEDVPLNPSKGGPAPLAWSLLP
T1 sequence (P11309 whole entry): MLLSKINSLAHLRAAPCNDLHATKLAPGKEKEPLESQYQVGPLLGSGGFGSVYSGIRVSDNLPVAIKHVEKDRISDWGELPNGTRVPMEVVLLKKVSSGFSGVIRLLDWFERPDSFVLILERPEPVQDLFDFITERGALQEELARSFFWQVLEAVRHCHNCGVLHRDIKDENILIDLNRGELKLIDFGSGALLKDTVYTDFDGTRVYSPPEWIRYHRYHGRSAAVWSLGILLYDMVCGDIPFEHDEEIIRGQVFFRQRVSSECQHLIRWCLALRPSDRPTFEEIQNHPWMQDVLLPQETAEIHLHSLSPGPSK

Row | IC50 (PIM-1) [nM] | IC50 (PIM-2) [nM] | IC50 (FLT3) [nM] | IC50 (PIM-3) [nM] | Structure (SMILES)
1 | 100 to 1000 | > 1000 | > 1000 | – | FC(F)(F)Oc1cccc(-n2nnc3ccc(N4CCC5(CC4)CNC5)nc32)c1 [2-43]
2 | 100 to 1000 | > 1000 | – | – | OCCNc1ccc2nnn(-c3cccc(OC(F)(F)F)c3)c2n1 [2-37]
3 | – | > 1000 | > 1000 | 100 to 1000 | CN1CCC(CNc2ccc3nnn(-c4cccc(OC(F)(F)F)c4)c3n2)CC1 [2-19, (1-Methyl-piperidin-4-ylmethyl)-[3-(3-trifluoromethoxy-phenyl)-3H-[1,2,3]triazolo[4,5-b]pyridin-5-yl]-amine]
4 | 100 to 1000 | > 1000 | – | – | FC(F)(F)Oc1cccc(-n2nnc3ccc(NCC4CCN(C5CC5)CC4)nc32)c1 [2-27]
5 | – | > 1000 | > 1000 | 100 to 1000 | CCN1CCC(CNc2ccc3nnn(-c4cccc(OC(F)(F)F)c4)c3n2)CC1 [2-76]
6 | – | > 1000 | – | – | O=C(CN1CCC(CNc2ccc3nnn(-c4cccc(OC(F)(F)F)c4)c3n2)CC1)C1CC1 [2-26]
7 | – | > 1000 | – | – | CCCNc1ccc2nnn(-c3cccc(OC(F)(F)F)c3)c2n1 [2-09]
8 | – | > 1000 | – | – | FC(F)(F)Oc1cccc(-n2nnc3ccc(NC4CCOCC4)nc32)c1 [2-10]
9 | – | > 1000 | > 1000 | – | COCCN1CCC(CNc2ccc3nnn(-c4cccc(OC(F)(F)F)c4)c3n2)CC1 [2-30]
10 | – | > 1000 | > 1000 | 100 to 1000 | FC(F)(F)Oc1cccc(-n2nnc3ccc(N4CCC5(CCNCC5)C4)nc32)c1 [2-62]
11 | – | > 1000 | > 1000 | 100 to 1000 | FC(F)(F)Oc1cccc(-n2nnc3ccc(N4CCNCC4)nc32)c1 [2-69]
12 | 100 to 1000 | > 1000 | > 1000 | – | OCCCNc1ccc2nnn(-c3cccc(OC(F)(F)F)c3)c2n1 [2-38]
13 | – | > 1000 | > 1000 | – | FC(F)(F)Oc1cccc(-n2nnc3ccc(NCC4CCN(CC5CC5)CC4)nc32)c1 [2-31]
14 | – | > 1000 | > 1000 | > 1000 | FCCN1CCC(CNc2ccc3nnn(-c4cccc(OC(F)(F)F)c4)c3n2)CC1 [2-28]
15 | 100 to 1000 | > 1000 | 100 to 1000 | – | CCN1CCC2(CC1)CC(CNc1nc3c(cc1Cl)nnn3-c1cccc(OC(F)(F)F)c1)C2 [2-91]
16 | > 1000 | > 1000 | – | – | O=C1CNC2(CCN(c3ccc4nnn(-c5cccc(OC(F)(F)F)c5)c4n3)CC2)C1 [2-52]
17 | > 1000 | > 1000 | – | – | O=C1NCCC12CCN(c1ccc3nnn(-c4cccc(OC(F)(F)F)c4)c3n1)CC2 [2-51]

Row | IC50 (PIM-1) [nM] | IC50 (PIM-2) [nM] | IC50 (FLT3) [nM] | IC50 (PIM-3) [nM] | Structure (SMILES)
18 | 100 to 1000 | > 1000 | – | > 1000 | CS(=O)(=O)N1CCN(c2ccc3nnn(-c4cccc(OC(F)(F)F)c4)c3n2)CC1 [2-72]
19 | – | > 1000 | > 1000 | – | FC(F)(F)Oc1cccc(-n2nnc3ccc(N4CCC5(CCNCC5)CC4)nc32)c1 [2-45]
20 | > 1000 | > 1000 | 100 to 1000 | – | CCN1CCOC2(CCN(c3ccc4nnn(-c5cccc(OC(F)(F)F)c5)c4n3)CC2)C1 [2-90]
21 | 100 to 1000 | > 1000 | > 1000 | – | CC(C)CN1CCC(CNc2ccc3nnn(-c4cccc(OC(F)(F)F)c4)c3n2)CC1 [2-74]
22 | – | > 1000 | > 1000 | – | FC(F)(F)Oc1cccc(-n2nnc3ccc(N4CCC5(CCNC5)CC4)nc32)c1 [2-60]
23 | 100 to 1000 | > 1000 | 100 to 1000 | – | FC(F)(F)Oc1cccc(-n2nnc3ccc(NCCN4CCNCC4)nc32)c1 [2-36]
24 | 100 to 1000 | > 1000 | – | – | CNCCCNc1ccc2nnn(-c3cccc(OC(F)(F)F)c3)c2n1 [2-50]
25 | 100 to 1000 | > 1000 | – | – | FC(F)(F)Oc1cccc(-n2nnc3ccc(NCC4CC4)nc32)c1 [2-20]
26 | 100 to 1000 | > 1000 | > 1000 | – | FC(F)(F)Oc1cccc(-n2nnc3ccc(N4CCC5(CCNC5)C4)nc32)c1 (stereo not drawn) [2-64]
27 | 100 to 1000 | > 1000 | – | – | O=CNCCN1CCN(c2ccc3nnn(-c4cccc(OC(F)(F)F)c4)c3n2)CC1 [2-29]
28 | – | > 1000 | > 1000 | – | FC(F)(F)Oc1cccc(-n2nnc3ccc(N4CC5CNCC5C4)nc32)c1 (stereo not drawn) [2-46]
29 | 100 to 1000 | > 1000 | – | – | O=C1NCCN1CCNc1ccc2nnn(-c3cccc(OC(F)(F)F)c3)c2n1 [2-48]
30 | > 1000 | > 1000 | – | – | NC(=O)CNc1ccc2nnn(-c3cccc(OC(F)(F)F)c3)c2n1 [2-40]
31 | 100 to 1000 | > 1000 | – | – | O=C1CN(CCNc2ccc3nnn(-c4cccc(OC(F)(F)F)c4)c3n2)CCN1 [2-35]
32 | 100 to 1000 | > 1000 | > 1000 | – | FC(F)(F)Oc1cccc(-n2nnc3cc(Cl)c(NCC4CC5(CCNCC5)C4)nc32)c1 [2-77]
33 | > 1000 | > 1000 | – | – | CN(C)CCNc1ccc2nnn(-c3cccc(OC(F)(F)F)c3)c2n1 [2-39]

The remaining lines, values behind:

Row | Structure (SMILES) | IC50 (PIM-1) [nM] | IC50 (PIM-2) [nM] | IC50 (FLT3) [nM] | IC50 (PIM-3) [nM]
34 | COc1ccc(-n2nnc3ccc(N4CCCCCC4)nc32)cc1 [2-01] | – | > 1000 | – | –
35 | CC(=O)Nc1ccc(-n2nnc3ccc(NCC4CCN(C)CC4)nc32)cc1 [2-23] | > 1000 | > 1000 | – | –
36 | Oc1ccc(-n2nnc3ccc(N4CCCCCC4)nc32)cc1 [2-05] | – | – | > 1000 | –
37 | COc1ccc(-n2nnc3ccc(NCc4cccc(Cl)c4)nc32)cc1 [2-03] | > 1000 | > 1000 | – | –
38 | CCOC(=O)c1cc2nnn(-c3ccc(O)cc3)c2nc1N1CCCCCC1 [2-16] | > 1000 | > 1000 | – | –
39 | COc1cccc(CCNc2ccc3nnn(-c4ccc(F)cc4)c3n2)c1OC [2-17] | > 1000 | > 1000 | – | –
40 | FC(F)(F)c1cccc(-n2nnc3ccc(NCC4CCNCC4)nc32)c1 [2-63] | – | > 1000 | > 1000 | 100 to 1000
41 | CCOC(=O)c1cc2nnn(-c3ccc(OC)cc3)c2nc1NCc1ccc(F)cc1 [2-06] | > 1000 | > 1000 | – | –
42 | FC(F)(F)c1csc(-n2nnc3ccc(NCC4CCNCC4)nc32)n1 [2-88] | – | > 1000 | > 1000 | –
43 | c1ccc(CCNc2ccc3nnn(-c4ccccc4)c3n2)cc1 [2-11] | – | > 1000 | – | –
44 | FC(F)(F)Oc1cccc(-n2nnc3ccc(NCCc4cccnc4)nc32)c1 [2-08] | – | > 1000 | – | –
45 | NS(=O)(=O)c1ccc(CCNc2ccc3nnn(-c4ccccc4)c3n2)cc1 [2-18] | – | > 1000 | – | –
46 | CCOC(=O)c1cc2nnn(-c3ccc(OC)cc3)c2nc1NCC1CCN(C)CC1 [2-14, 3-(4-Methoxy-phenyl)-5-[(1-methyl-piperidin-4-ylmethyl)-amino]-3H-[1,2,3]triazolo[4,5-b]pyridine-6-carboxylic acid ethyl ester] | > 1000 | > 1000 | – | –
47 | NC(=O)CCNc1ccc2nnn(-c3cccc(OC(F)(F)F)c3)c2n1 [2-42] | 100 to 1000 | > 1000 | – | –
48 | CC(=O)NCCNc1ccc2nnn(-c3cccc(OC(F)(F)F)c3)c2n1 [2-41] | > 1000 | > 1000 | – | –
49 | Nc1ccc(-n2nnc3ccc(NCC4CCNCC4)nc32)cn1 [2-71] | – | > 1000 | 100 to 1000 | –
50 | CC(C)(C)OC(=O)N1CCC(Nc2ccc3nnn(-c4cccc(OC(F)(F)F)c4)c3n2)CC1 [2-33] | > 1000 | > 1000 | – | –
51 | CC(C)(C)OC(=O)N1CCN(CCNc2ccc3nnn(-c4cccc(OC(F)(F)F)c4)c3n2)CC1 [2-34] | > 1000 | > 1000 | – | –
52 | FC(F)(F)Oc1cccc(-n2nnc3ccc(NCC4CCN(CC5CCOCC5)CC4)nc32)c1 [2-75] | 100 to 1000 | > 1000 | > 1000 | –
53 | COc1ccc(-n2nnc3ccc(NCc4ccc(F)cc4)nc32)cc1 [2-02, (4-Fluoro-benzyl)-[3-(4-methoxy-phenyl)-3H-[1,2,3]triazolo[4,5-b]pyridin-5-yl]amine] | – | > 1000 | – | –
54 | COc1cc(NC2CCOCC2)nc2c1nnn2-c1cccc(N(C)C)c1 [2-93] | 100 to 1000 | – | > 1000 | –
55 | Fc1ccc(-n2nnc3ccc(N4CCCCCC4)nc32)cc1 [2-12] | – | > 1000 | – | –
56 | CCOC(=O)c1cc2nnn(-c3ccc(O)cc3)c2nc1NCc1ccc(F)cc1 [2-15] | > 1000 | > 1000 | – | –
57 | CCCNc1ccc2nnn(-c3ccc(O)cc3)c2n1 [2-24] | – | > 1000 | – | –
58 | Fc1ccc(-n2nnc3ccc(N4CCOCC4)nc32)cc1 [2-13] | – | > 1000 | – | –
59 | CCOC(=O)c1cc2nnn(-c3ccc(OC)cc3)c2nc1N1CCCCCC1 [2-07] | > 1000 | > 1000 | – | –
60 | CN(C)C(=O)CN1CCC(CNc2ccc3nnn(-c4cccc(OC(F)(F)F)c4)c3n2)CC1 [2-22] | – | > 1000 | – | –
